Assay: recombinant barcode read abundance after kanamycin selection (control-corrected) (log10(CPM+1)); higher = more efficient recombination; sequences stand for … in AGTGCAGAGAAAATCGGCCAGTTTTCTCTGCCTGCAGTCCGCATGCCGT…AGATTTATGCAGCGGACTGCCTTTCTCCCAAAGTGATAAACCGGACAGTATCATGGACCGGTTTTCCCGGTAATCCGTATTTGCAAGGTTGGTTTCACT; site = the 11-nt target
Procedure: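 Pooled E. coli target-specificity screen for the IS621 bridge recombinase. Each library plasmid pairs an 11-nt target (CT core) with a bridge RNA whose target-binding loop (9-nt LTG + 4-nt RTG) is reprogrammed; the rest of the 177-nt WT IS621 bridge RNA scaffold is fixed. The plasmid is co-electroporated with a WT donor plasmid; recombinase is induced with 0.1 mM IPTG and recombinants are selected on kanamycin. Recombinant barcodes are sequenced, converted to CPM, averaged over two biological replicates and corrected by the unselected control CPM. Molecule = full bridge RNA written as DNA: LTG = specificity nt 1-9, RTG = reverse complement of specificity nt 8-11, in the WT scaffold.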
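Note: IS621 recombinase and bridge RNA in Escherichia coli cells.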

| Sequence | recombinant barcode read abundance (log10) |
| --- | --- |
| ACCAAGACTTGGGTTCTAACCTGTTGCCG (site ACCAAGACTCG) | 0.373 |
| ACCAAGACTTGGGTTCTAACCTGTTGCCG (site TCCAAGACTCT) | 0.00901 |
| ACCAAGCCTTGGGTTCTAACCTGTTGCGG (site ACCAAGCCTCC) | 1.36 |
| ACCAAGCCTTGGGTTCTAACCTGTTGCGG (site GCCCAGCCTCC) | 0.295 |
| ACCAATCCTTGGGTTCTAACCTGTTGCCT (site ACCAATACTAG) | 0.087 |
| ACCAATCCTTGGGTTCTAACCTGTTGCCT (site ACCAATCCTAG) | 0.21 |
| ACCAATCCTTGGGTTCTAACCTGTTGCCT (site ACCAATGCTAG) | 0.177 |
| ACCAATCCTTGGGTTCTAACCTGTTGCCT (site ACCAATTCTAG) | 0.0626 |
| ACCAGGTCTTGGGTTCTAACCTGTTGCCT (site AACAGGTCTAG) | 0.15 |
| ACCAGGTCTTGGGTTCTAACCTGTTGCCT (site ACCAGGTCTAG) | 1.59 |
| ACCAGGTCTTGGGTTCTAACCTGTTGCCT (site AGCAGGTCTAG) | 0.208 |
| ACCAGGTCTTGGGTTCTAACCTGTTGCCT (site ATCAGGTCTAG) | 0.09 |
| ACCAGTCCTTGGGTTCTAACCTGTTGCTG (site ACCAGTCCTCA) | 1.97 |
| ACCAGTCCTTGGGTTCTAACCTGTTGCTG (site ACCAGTCCTTA) | 0.0735 |
| ACCCAAACTTGGGTTCTAACCTGTTGCCT (site ACCCAAACTAG) | 1.08 |
| ACCCAAACTTGGGTTCTAACCTGTTGCCT (site ACCCAACCTAG) | 0.0677 |
| ACCCAAACTTGGGTTCTAACCTGTTGCCT (site ACCCAAGCTAG) | 0.161 |
| ACCCAAACTTGGGTTCTAACCTGTTGCCT (site ACCCAATCTAG) | 0.0553 |

| Sequence | recombinant barcode read abundance (log10) |
| --- | --- |
| ACCCGCTCTTGGGTTCTAACCTGTTGCCT (site ACCCGCTCTAG) | 0.542 |
| ACCCGCTCTTGGGTTCTAACCTGTTGCCT (site TAGGATCCTTC) | 0.538 |
| ACCCTAACTTGGGTTCTAACCTGTTGCGG (site ACCCTAACTCC) | 1.16 |
| ACCCTAACTTGGGTTCTAACCTGTTGCGG (site ACCTTAGCTCC) | 0 |
| ACCCTATCTTGGGTTCTAACCTGTTGCCT (site ACCCTAACTCG) | 0.0342 |
| ACCCTATCTTGGGTTCTAACCTGTTGCCT (site ACCCTATCTAG) | 1.39 |
| ACCCTCCCTTGGGTTCTAACCTGTTGCTA (site ACCCTCCCTTA) | 2.47 |
| ACCCTCCCTTGGGTTCTAACCTGTTGCTA (site ACTCTACCTTA) | 0.136 |
| ACCGGTCCTTGGGTTCTAACCTGTTGCGT (site ACCGGTCCTAC) | 2.14 |
| ACCGGTCCTTGGGTTCTAACCTGTTGCGT (site ATCGTTCCTAC) | 0.0193 |
| ACCGTACCTTGGGTTCTAACCTGTTGCCT (site ACCGTACCTAG) | 0.304 |
| ACCGTACCTTGGGTTCTAACCTGTTGCCT (site ACCGTAGCTAG) | 0.0594 |
| ACCGTTCCTTGGGTTCTAACCTGTTGCCT (site ACCGTTCCTAG) | 0.78 |
| ACCGTTCCTTGGGTTCTAACCTGTTGCCT (site CTTTAAGCTTA) | 0.0328 |
| ACCTAACCTTGGGTTCTAACCTGTTGCAT (site ACCTAACCTAT) | 1.67 |
| ACCTAACCTTGGGTTCTAACCTGTTGCAT (site ATCTATCCTAT) | 0.214 |
| ACCTACCCTTGGGTTCTAACCTGTTGCGG (site ACCTACCCTCC) | 2.33 |
| ACCTACCCTTGGGTTCTAACCTGTTGCGG (site CGAACATCTAA) | 0.169 |

Source: the supplement of paper PMC11208160
